Assay results published in patent US7322965B2, “Infection-resistant medical devices” (priority 2002, dated 2008).
≈ marks a conversion by molar mass, not a printed value.

Experiments:
S. aureus UC-20205 = assay: Determination of minimum inhibitory concentration (microdilution); format: cell-based; details: Staphylococcus aureus, UC20205, 18 h
S. aureus UC-20206 = assay: as above; format: cell-based; details: Staphylococcus aureus, UC20206, 18 h
[1] = Resistance to thermal decomposition; format: physicochemical
From the text: The medical device can be, for example, a suture, orthopedic appliance, stent, catheter, guidewire, shunt (e.g., hemodialysis shunt or cerebrospinal shunt), prosthesis (e.g., prosthetic heart valve or prosthetic joint), cardiac pacemaker, neuronal stimulator, or vascular graft. The medical device can be made of biomaterials (i.e., biologically-compatible materials known to those skilled in the art, such as metal, polymeric, or ceramic materials). The antimicrobial agent can be incorporated into the medical device according to methods known to those skilled in the art, such as by immersing the medical device in a solution (e.g., an aqueous solution) containing the antimicrobial agent, or, for example, by methods described in one of the following references: U.S. Pat. No. 3,987,797; U.S. Pat. No. 4,563,485; U.S. Pat. No. 4,875,479; U.S. Pat. No. 4,946,870; U.S. Pat. No. 5,306,289; U.S. Pat. No. 5,584,877; U.S. Pat. No. 5,607,685; U.S. Pat. No. 5,788,979; U.S. Pat. No. 6,143,037; U.S. Pat. No. 6,238,687; WO00/56283; and WO 01/28601, the disclosures of which are incorporated herein by reference. The medical device can include a polymeric material, and the polymeric material can be co-extruded with the antibacterial agent. […]

bacterial adherence = details: subinhibitory concentrations; other investigators; cited from earlier work

Row | SMILES | MIC (S. aureus UC-20205) [µg/mL] | MIC (S. aureus UC-20206) [µg/mL] | temperature up to which resistant to thermal decomposition [1] | activity against bacterial adherence (bacterial adherence)
1 | CC(=O)NC[C@H]1CN(c2ccc(N3CCOCC3)c(F)c2)C(=O)O1 [Linezolid, (S)-N-[[3-[3-fluoro-4-(4-morpholinyl)phenyl]-2-oxo-5-oxazolidinyl]methyl]acetamide] | 2 (≈ 5.93 µM) | 4 (≈ 11.9 µM) | at least 121 °C | 
2 | CN[C@H](CC(C)C)C(=O)N[C@H]1C(=O)N[C@@H](CC(N)=O)C(=O)N[C@H]2C(=O)N[C@H]3C(=O)N[C@H](C(=O)N[C@H](C(=O)O)c4cc(O)cc(O)c4-c4cc3ccc4O)[C@H](O)c3ccc(c(Cl)c3)Oc3cc2cc(c3O[C@@H]2O[C@H](CO)[C@@H](O)[C@H](O)[C@H]2O[C@H]2C[C@](C)(N)[C@H](O)[C@H](C)O2)Oc2ccc(cc2Cl)[C@H]1O [Vancomycin] |  |  |  | minimal or no activity against bacterial adherence
